Experimental data from PubChem BioAssay (NCI).
“And” between values parts separate entries of the source, which are not always exact repeats. Equal values may be shown once.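 Protocol summary: plate cells (96-well), add compound at 5 concentrations, incubate 48 h, interpolate endpoints linearly. At the GI50, growth is halved. TGI is the concentration that stops growth completely.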

Key:
Experiment in all cases: NCI tumour cell line growth inhibition, 48 h
786-0 renal = test system: 786-0 renal
EKVX NSCLC = test system: EKVX NSCLC
HCC-2998 colon = test system: HCC-2998 colon
NCI-H460 lung = test system: NCI-H460 lung
NCI-H522 lung = test system: NCI-H522 lung
NCI/ADR-RES ovarian = test system: NCI/ADR-RES ovarian
SF-295 CNS = test system: SF-295 CNS
SF-539 CNS = test system: SF-539 CNS
SR leukemia = test system: SR leukemia
SW-620 colon = test system: SW-620 colon

| Compound | GI50 (786-0 renal) | TGI (786-0 renal) | GI50 (EKVX NSCLC) | TGI (EKVX NSCLC) | GI50 (HCC-2998 colon) | TGI (HCC-2998 colon) | GI50 (NCI-H460 lung) [µM] | GI50 (NCI-H522 lung) | TGI (NCI-H522 lung) | GI50 (NCI/ADR-RES ovarian) | TGI (NCI/ADR-RES ovarian) | GI50 (SF-295 CNS) | TGI (SF-295 CNS) | GI50 (SF-539 CNS) | TGI (SF-539 CNS) | TGI (SR leukemia) | GI50 (SW-620 colon) [µM] | TGI (SW-620 colon) | TGI (NCI-H460 lung) [µM] | GI50 (SR leukemia) [µM] |
| --- | --- | --- | --- | --- | --- | --- | --- | --- | --- | --- | --- | --- | --- | --- | --- | --- | --- | --- | --- | --- |
| CCc1nc(N)nc(N)c1C#CC(C)c1ccc(-c2ccncc2)cc1Cl (stereo unspecified) | 0.00501 µM and 0.0128 µM | 4.06 µM and 6.63 µM | 0.0259 µM and 0.0772 µM | 2.5 µM and 12.6 µM | 0.0869 µM and 0.134 µM | 4.07 µM and 13.1 µM | < 0.005 | 0.0477 µM and 0.0346 µM | 2.97 µM and 4.06 µM | 0.0096 µM and 0.0366 µM | 5.11 µM and 9.3 µM | 0.00508 µM and 0.0141 µM | 0.809 µM and 4.24 µM | 0.0159 µM and 0.0423 µM | 1.56 µM and 10.4 µM | 2.27 µM and 6.27 µM | < 0.005 | 6.58 µM and 14.9 µM |  |  |
| C[C@H]1C[C@@H](n2c(Nc3ccc(OC(F)(F)F)cc3)nc3cc(CCC(=O)O)ccc32)CC(C)(C)C1 | 5.5 µM | 19.7 µM | 10.5 µM | 32.2 µM | 6.68 µM | 20.8 µM | 9.74 | 14 µM | 33.2 µM | 11.7 µM | 27.5 µM | 4.85 µM | 19.1 µM | 13.1 µM | 37.7 µM | 36.6 µM | 15.3 | 32.5 µM | 24.7 | 6.23 |
| COc1ccc(/C=C\c2cc(OC)c(OC)c(OC)c2)cc1NC(=O)/C=C/c1ccc(OC)c(OC)c1 | 4.79 µM | > 100 µM | > 100 µM | > 100 µM | 2.72 µM | > 100 µM | 3.46 | 2.61 µM | > 100 µM | 0.949 µM | > 100 µM |  |  | 3.1 µM | 52.6 µM | > 100 µM | 4.88 | > 100 µM | > 100 | 0.412 |
| O=C(O)CCCN1C(=O)/C(=C/C(Cl)=C/c2ccccc2)SC1=S | 2.33 µM | 6.39 µM | 2.21 µM | 5.91 µM | 1.83 µM | 3.41 µM | 2.47 | 2.21 µM | 6.62 µM | 2.39 µM | 9.35 µM | 2.57 µM | 7.16 µM | 1.98 µM | 4.85 µM | 15.3 µM | 1.3 | 3.86 µM | 6.76 | 0.719 |
| O=[N+]([O-])c1ccccc1/C=N\NC(=S)N/N=C/c1ccccc1[N+](=O)[O-] | 38 µM | > 100 µM | 8.11 µM | > 100 µM | 20 µM | > 100 µM | 3.64 | 2.15 µM | 21.7 µM | 2.66 µM | > 100 µM | 1.87 µM | 7.41 µM | 4.17 µM | 58.6 µM | > 100 µM | 4.29 | > 100 µM | > 100 | 2.87 |
| NCC(=O)Nc1ccc(Cl)cc1C(=O)c1ccc[nH]1 |  | > 100 µM |  | > 100 µM |  | > 100 µM |  |  | 50.1 µM |  | > 100 µM |  | > 100 µM |  | > 100 µM | > 100 µM |  | > 100 µM | > 100 |  |
